Assay results: publication PMC3382171 (PLoS ONE, 2012)

Tests used:
Assay in all cases: biochemical
MAPKAPK3 = MAPKAPK3 (Homo sapiens, UniProt Q16644); set-up: gene MAPKAPK3; settings: read-out: Dundee KSS % inhibition at 1uM
Method: The METi and RAFi were screened against kinase panels (SelectScreen, Invitrogen; University of Dundee, Division of Signal Transduction Therapy, UK; Upstate Biotechnology/Millipore, Billerica, MA). In these selectivity assays the concentration of ATP was set to the Km value of ATP for each kinase tested to allow for a relative potency comparison between the various kinases. The compounds were tested at 1 µM final concentration. […] (A) Kinase selectivity screen (KSS) performed at Upstate Biotechnology. […] (B) KSS performed at University of Dundee (Division of Signal Transduction Therapy). […] (PDF) Click here for additional data file.

MET (cMet) = MET (cMet) (Homo sapiens, UniProt P08581); set-up: Invitrogen SelectScreen kinase panel, percent inhibition at 1 uM, ATP at Km; settings: read-out: Invitrogen KSS %Inh at 1 µM
How it was run: (§1)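 Commercial kinase panel screens run with ATP at the Km for each kinase. Compounds tested at 1 µM final concentration; values are % inhibition of phosphorylation relative to control.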

AKT3 (PKB gamma) = AKT3 (PKB gamma) (Homo sapiens, UniProt Q9Y243); set-up: Invitrogen SelectScreen kinase panel, percent inhibition at 1 uM, ATP at Km; settings: read-out: Invitrogen KSS %Inh at 1 µM
Chain of AKT3 (PKB gamma) (Q9Y243 whole entry): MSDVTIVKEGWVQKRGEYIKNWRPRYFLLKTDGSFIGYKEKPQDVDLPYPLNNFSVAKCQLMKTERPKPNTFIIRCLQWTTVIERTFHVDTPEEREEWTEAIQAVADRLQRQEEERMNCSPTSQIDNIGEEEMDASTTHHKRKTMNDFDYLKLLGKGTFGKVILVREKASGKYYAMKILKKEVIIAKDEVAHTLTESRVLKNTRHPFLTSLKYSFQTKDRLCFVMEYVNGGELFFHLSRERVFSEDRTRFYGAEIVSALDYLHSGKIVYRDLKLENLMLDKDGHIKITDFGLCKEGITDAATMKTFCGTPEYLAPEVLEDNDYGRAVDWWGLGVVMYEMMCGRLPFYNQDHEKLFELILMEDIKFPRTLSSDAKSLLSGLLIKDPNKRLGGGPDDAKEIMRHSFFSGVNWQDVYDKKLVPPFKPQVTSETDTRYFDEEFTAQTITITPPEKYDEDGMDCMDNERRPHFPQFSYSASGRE
How it was run: as §1

EPHA4 = EPHA4 (Homo sapiens, UniProt P54764); set-up: Invitrogen SelectScreen kinase panel, percent inhibition at 1 uM, ATP at Km; settings: read-out: Invitrogen KSS %Inh at 1 µM
How it was run: as §1

PRKCD (PKC delta) = PRKCD (PKC delta) (Homo sapiens, UniProt Q05655); set-up: Invitrogen SelectScreen kinase panel, percent inhibition at 1 uM, ATP at Km; settings: read-out: Invitrogen KSS %Inh at 1 µM
How it was run: as §1

KIT = KIT (Homo sapiens, UniProt P10721); set-up: Invitrogen SelectScreen kinase panel, percent inhibition at 1 uM, ATP at Km; settings: read-out: Invitrogen KSS %Inh at 1 µM
Chain of KIT (P10721 whole entry): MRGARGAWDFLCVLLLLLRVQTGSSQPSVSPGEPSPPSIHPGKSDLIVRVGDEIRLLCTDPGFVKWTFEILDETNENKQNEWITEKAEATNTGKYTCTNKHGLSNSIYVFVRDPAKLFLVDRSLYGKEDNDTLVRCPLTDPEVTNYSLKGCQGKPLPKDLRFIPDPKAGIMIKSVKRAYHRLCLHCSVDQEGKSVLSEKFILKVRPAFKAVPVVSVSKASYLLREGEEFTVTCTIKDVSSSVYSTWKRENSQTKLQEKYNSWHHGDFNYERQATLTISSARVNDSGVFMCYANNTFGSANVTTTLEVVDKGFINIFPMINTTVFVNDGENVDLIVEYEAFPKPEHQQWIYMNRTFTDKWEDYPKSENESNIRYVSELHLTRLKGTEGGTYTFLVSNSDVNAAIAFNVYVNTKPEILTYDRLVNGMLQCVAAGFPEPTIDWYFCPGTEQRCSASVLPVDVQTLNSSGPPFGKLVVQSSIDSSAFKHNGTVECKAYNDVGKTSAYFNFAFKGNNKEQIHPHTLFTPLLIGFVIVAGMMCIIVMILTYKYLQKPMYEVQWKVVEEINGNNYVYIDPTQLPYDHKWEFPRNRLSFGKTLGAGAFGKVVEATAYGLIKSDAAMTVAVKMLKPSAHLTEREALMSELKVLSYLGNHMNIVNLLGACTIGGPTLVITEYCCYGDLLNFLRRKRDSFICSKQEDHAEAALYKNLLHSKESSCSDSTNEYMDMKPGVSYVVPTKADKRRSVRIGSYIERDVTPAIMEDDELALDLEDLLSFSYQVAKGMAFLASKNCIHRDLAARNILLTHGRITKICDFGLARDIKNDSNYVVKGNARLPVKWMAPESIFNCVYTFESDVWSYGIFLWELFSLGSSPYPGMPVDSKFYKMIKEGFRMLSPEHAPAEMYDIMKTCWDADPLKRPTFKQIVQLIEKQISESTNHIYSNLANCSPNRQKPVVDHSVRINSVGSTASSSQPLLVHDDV
How it was run: as §1

FLT3 = FLT3 (Homo sapiens, UniProt P36888); set-up: Invitrogen SelectScreen kinase panel, percent inhibition at 1 uM, ATP at Km; settings: read-out: Invitrogen KSS %Inh at 1 µM
How it was run: as §1

CDK1/cyclinB = CDK1/cyclinB (Homo sapiens, UniProt P06493); set-up: Invitrogen SelectScreen kinase panel, percent inhibition at 1 uM, ATP at Km; settings: read-out: Invitrogen KSS %Inh at 1 µM
Chain of CDK1/cyclinB (P06493 whole entry): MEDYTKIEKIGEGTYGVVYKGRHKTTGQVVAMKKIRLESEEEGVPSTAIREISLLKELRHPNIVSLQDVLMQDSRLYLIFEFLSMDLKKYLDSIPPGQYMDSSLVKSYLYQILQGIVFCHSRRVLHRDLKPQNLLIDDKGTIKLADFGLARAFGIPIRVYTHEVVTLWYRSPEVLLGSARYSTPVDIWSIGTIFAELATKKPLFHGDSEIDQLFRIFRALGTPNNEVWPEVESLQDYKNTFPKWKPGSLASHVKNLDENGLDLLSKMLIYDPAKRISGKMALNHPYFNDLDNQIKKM
Chain of CDK1/cyclinB (P14635 whole entry partner): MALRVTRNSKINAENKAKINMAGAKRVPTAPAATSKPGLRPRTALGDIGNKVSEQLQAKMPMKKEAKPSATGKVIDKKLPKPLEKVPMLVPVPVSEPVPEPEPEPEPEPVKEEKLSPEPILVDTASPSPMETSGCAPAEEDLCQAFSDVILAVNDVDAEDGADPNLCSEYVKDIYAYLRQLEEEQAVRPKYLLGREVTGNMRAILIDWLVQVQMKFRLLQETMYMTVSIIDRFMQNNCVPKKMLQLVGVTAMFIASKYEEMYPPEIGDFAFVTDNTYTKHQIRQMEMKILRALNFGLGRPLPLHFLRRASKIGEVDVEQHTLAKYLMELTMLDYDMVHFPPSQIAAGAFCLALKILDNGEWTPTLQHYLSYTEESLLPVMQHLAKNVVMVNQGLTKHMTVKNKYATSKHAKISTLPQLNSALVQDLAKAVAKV
How it was run: as §1

RAF1 (cRAF) Y340D Y341D = RAF1 (cRAF) Y340D Y341D (Homo sapiens, UniProt P04049, Y340D/Y341D); set-up: Invitrogen SelectScreen kinase panel, percent inhibition at 1 uM, ATP at Km; settings: read-out: Invitrogen KSS %Inh at 1 µM
Chain of RAF1 (cRAF) Y340D Y341D (P04049 whole entry Y340D/Y341D): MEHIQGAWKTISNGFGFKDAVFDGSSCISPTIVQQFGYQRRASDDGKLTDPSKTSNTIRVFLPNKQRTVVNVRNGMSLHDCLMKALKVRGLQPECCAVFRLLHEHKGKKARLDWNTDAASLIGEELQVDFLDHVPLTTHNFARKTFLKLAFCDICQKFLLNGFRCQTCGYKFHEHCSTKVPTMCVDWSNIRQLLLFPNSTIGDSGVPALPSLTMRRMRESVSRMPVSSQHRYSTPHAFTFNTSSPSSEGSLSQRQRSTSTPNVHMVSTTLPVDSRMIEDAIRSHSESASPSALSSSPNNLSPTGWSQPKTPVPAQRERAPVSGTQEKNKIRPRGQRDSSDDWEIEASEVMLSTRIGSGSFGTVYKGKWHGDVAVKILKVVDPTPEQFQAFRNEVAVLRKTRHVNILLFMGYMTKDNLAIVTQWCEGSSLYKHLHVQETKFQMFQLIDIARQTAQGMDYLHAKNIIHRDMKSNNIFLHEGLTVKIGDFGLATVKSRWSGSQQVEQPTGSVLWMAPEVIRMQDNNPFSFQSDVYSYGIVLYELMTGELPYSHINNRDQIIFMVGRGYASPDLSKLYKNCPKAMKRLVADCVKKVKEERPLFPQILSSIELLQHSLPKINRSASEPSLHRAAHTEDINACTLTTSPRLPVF
How it was run: as §1

HIPK4 = HIPK4 (Homo sapiens, UniProt Q8NE63); set-up: Invitrogen SelectScreen kinase panel, percent inhibition at 1 uM, ATP at Km; settings: read-out: Invitrogen KSS %Inh at 1 µM
Chain of HIPK4 (Q8NE63 whole entry): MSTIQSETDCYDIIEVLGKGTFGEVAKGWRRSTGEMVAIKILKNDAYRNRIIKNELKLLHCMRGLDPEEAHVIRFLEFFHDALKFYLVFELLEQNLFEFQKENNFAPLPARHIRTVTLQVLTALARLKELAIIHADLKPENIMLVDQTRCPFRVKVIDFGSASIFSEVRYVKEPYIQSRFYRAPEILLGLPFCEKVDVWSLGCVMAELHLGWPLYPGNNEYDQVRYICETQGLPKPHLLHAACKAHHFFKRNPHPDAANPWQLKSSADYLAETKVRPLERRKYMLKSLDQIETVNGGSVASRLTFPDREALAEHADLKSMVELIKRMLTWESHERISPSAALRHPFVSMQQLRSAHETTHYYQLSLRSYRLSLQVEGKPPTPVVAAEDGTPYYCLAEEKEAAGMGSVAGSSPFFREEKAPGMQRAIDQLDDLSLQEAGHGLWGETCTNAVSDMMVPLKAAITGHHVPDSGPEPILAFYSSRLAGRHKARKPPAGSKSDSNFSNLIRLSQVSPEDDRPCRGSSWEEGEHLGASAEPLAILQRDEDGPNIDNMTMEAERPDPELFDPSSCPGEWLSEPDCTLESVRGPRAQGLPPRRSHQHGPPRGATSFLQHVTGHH
How it was run: as §1

STK3 (MST2) = STK3 (MST2) (Homo sapiens, UniProt Q13188); set-up: Invitrogen SelectScreen kinase panel, percent inhibition at 1 uM, ATP at Km; settings: read-out: Invitrogen KSS %Inh at 1 µM
How it was run: as §1

MAP2K1 (MEK1) = MAP2K1 (MEK1) (Homo sapiens, UniProt Q02750); set-up: Invitrogen SelectScreen kinase panel, percent inhibition at 1 uM, ATP at Km; settings: read-out: Invitrogen KSS %Inh at 1 µM
Chain of MAP2K1 (MEK1) (Q02750 whole entry): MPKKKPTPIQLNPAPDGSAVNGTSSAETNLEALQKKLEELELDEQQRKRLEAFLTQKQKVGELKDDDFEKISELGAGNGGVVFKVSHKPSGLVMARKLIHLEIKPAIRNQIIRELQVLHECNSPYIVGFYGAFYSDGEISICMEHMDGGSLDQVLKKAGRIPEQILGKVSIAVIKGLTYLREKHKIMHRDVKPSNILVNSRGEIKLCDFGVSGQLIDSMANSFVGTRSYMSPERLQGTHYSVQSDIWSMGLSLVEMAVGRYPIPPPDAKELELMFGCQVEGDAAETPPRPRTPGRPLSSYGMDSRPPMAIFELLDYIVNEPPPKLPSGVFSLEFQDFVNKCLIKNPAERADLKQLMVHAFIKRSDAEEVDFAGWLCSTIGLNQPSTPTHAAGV
How it was run: as §1

MAPK8 (JNK1) = MAPK8 (JNK1) (Homo sapiens, UniProt P45983); set-up: Invitrogen SelectScreen kinase panel, percent inhibition at 1 uM, ATP at Km; settings: read-out: Invitrogen KSS %Inh at 1 µM
How it was run: as §1

AMPK A1/B1/G1 = target: T1, AMPK A1/B1/G1 (Homo sapiens, UniProt Q13131); set-up: Invitrogen SelectScreen kinase panel, percent inhibition at 1 uM, ATP at Km; settings: read-out: Invitrogen KSS %Inh at 1 µM
T1 construct: gene PRKAA1; A1/B1/G1
How it was run: as §1

AKT1 (PKB alpha) = AKT1 (PKB alpha) (Homo sapiens, UniProt P31749); set-up: Invitrogen SelectScreen kinase panel, percent inhibition at 1 uM, ATP at Km; settings: read-out: Invitrogen KSS %Inh at 1 µM
How it was run: as §1

chicken CSK = chicken CSK (Gallus gallus, UniProt P41239); set-up: University of Dundee kinase panel, percent inhibition of phosphorylation at 1 uM RAFi, ATP at Km; settings: read-out: Dundee KSS %inh at 1 uM
Chain of chicken CSK (P41239 whole entry): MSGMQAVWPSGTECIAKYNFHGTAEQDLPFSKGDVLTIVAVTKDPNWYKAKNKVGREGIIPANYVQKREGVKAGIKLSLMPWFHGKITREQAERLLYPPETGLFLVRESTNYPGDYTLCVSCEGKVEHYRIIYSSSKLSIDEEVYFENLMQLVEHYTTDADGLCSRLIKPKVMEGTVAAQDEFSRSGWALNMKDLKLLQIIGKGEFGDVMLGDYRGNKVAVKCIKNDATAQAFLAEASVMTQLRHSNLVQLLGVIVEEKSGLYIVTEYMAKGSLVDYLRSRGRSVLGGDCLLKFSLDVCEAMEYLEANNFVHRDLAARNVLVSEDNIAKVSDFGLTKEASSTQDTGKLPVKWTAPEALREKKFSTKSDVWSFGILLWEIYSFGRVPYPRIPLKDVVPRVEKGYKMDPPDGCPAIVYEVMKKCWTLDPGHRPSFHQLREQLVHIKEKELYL
Method: (§2) The METi and RAFi were screened against kinase panels (SelectScreen, Invitrogen; University of Dundee, Division of Signal Transduction Therapy, UK; Upstate Biotechnology/Millipore, Billerica, MA). In these selectivity assays the concentration of ATP was set to the Km value of ATP for each kinase tested to allow for a relative potency comparison between the various kinases. The compounds were tested at 1 µM final concentration. […] Supplementary file pone.0039653.s002.pdf: Figure S2 Kinase Selectivity Screen of RAFi. (A) Kinase selectivity screen (KSS) performed at University of Dundee (Division of Signal Transduction Therapy). Values in % inhibition of phosphorylation given 1 µM of RAFi compared to control. (B) KSS performed at Invitrogen (Selectscreen Service) compared to control. Values in % inhibition of phosphorylation given 1 µM of RAFi. (C) Cell based dose response kinase inhibition of indicated kinases by RAFi. (PDF) Click here for additional data file.

CaMK1a = target: T2, CaMK1a (Homo sapiens, UniProt Q14012); set-up: University of Dundee kinase panel, percent inhibition of phosphorylation at 1 uM RAFi, ATP at Km; settings: read-out: Dundee KSS %inh at 1 uM
T2 construct: gene CAMK1
Method: as §2

PLK1 = PLK1 (Homo sapiens, UniProt P53350); set-up: University of Dundee kinase panel, percent inhibition of phosphorylation at 1 uM RAFi, ATP at Km; settings: read-out: Dundee KSS %inh at 1 uM
Chain of PLK1 (P53350 whole entry): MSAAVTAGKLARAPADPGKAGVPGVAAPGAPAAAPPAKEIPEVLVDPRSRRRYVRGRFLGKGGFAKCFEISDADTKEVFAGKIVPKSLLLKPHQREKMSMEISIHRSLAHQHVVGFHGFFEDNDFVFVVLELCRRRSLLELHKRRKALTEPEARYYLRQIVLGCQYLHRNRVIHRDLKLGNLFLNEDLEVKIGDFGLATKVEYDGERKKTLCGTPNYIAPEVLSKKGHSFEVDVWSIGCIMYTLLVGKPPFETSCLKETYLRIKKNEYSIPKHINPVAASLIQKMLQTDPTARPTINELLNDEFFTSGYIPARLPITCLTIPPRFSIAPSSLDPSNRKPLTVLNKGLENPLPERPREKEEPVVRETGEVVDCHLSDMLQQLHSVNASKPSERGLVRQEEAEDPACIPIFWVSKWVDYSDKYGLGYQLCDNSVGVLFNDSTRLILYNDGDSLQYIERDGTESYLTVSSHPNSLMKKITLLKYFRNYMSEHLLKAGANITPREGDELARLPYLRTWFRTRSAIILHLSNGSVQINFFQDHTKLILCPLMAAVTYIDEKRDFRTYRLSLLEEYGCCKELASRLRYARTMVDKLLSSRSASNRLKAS
Method: as §2

PKD1 = target: T3, PKD1 (Homo sapiens, UniProt Q15139); set-up: University of Dundee kinase panel, percent inhibition of phosphorylation at 1 uM RAFi, ATP at Km; settings: read-out: Dundee KSS %inh at 1 uM
T3 construct: gene PRKD1
Method: as §2

**Q.** `OCCn1cc(-c2cnc3nnn(Cc4ccc5ncccc5c4)c3n2)cn1` [METi, PF-04217903] was tested. Which inhibition at 1 µM (MAPKAPK3) did it give?
**A.** 18.6%

**Q.** For `N#CCCNc1nccc(-c2cn(CC(F)F)nc2-c2cnc3[nH]ccc3c2)n1` [RAFi, PF-04880594], which inhibition at 1 µM (MET (cMet)) is on record?
**A.** 12%

**Q.** What about the inhibition at 1 µM (AKT3 (PKB gamma)) of the same compound?
**A.** 7%

**Q.** What about the inhibition at 1 µM (EPHA4) of the same compound?
**A.** 1%

**Q.** And the inhibition at 1 µM (PRKCD (PKC delta))?
**A.** 6%

**Q.** And the inhibition at 1 µM (KIT)?
**A.** 36%

**Q.** What about the inhibition at 1 µM (FLT3) of the same compound?
**A.** 61%

**Q.** What about the inhibition at 1 µM (CDK1/cyclinB) of the same compound?
**A.** -1%

**Q.** What about the inhibition at 1 µM (RAF1 (cRAF) Y340D Y341D) of the same compound?
**A.** 95%

**Q.** And the inhibition at 1 µM (HIPK4)?
**A.** 8%

**Q.** And the inhibition at 1 µM (STK3 (MST2))?
**A.** 9%

**Q.** What about the inhibition at 1 µM (MAP2K1 (MEK1)) of the same compound?
**A.** 24%

**Q.** And the inhibition at 1 µM (MAPK8 (JNK1))?
**A.** 31%

**Q.** And the inhibition at 1 µM (AMPK A1/B1/G1)?
**A.** 16%

**Q.** What about the inhibition at 1 µM (AKT1 (PKB alpha)) of the same compound?
**A.** 5%

**Q.** What about the inhibition at 1 µM (chicken CSK) of the same compound?
**A.** 27%

**Q.** What about the inhibition at 1 µM (CaMK1a) of the same compound?
**A.** 18%

**Q.** What about the inhibition at 1 µM (PLK1) of the same compound?
**A.** 47%

**Q.** And the inhibition at 1 µM (PKD1)?
**A.** 47%
